Values joined by “and” are separate entries in the source; they are usually repeats but may differ in a detail not shown here. Equal entries are not always repeated.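 Step 1: Grow cells in 96-well plates. Step 2: Expose to compound for 48 hours at 5 concentrations. Step 3: Interpolate endpoints linearly; if unreached, use highest concentration. GI50 = concentration required for 50% inhibition of growth. TGI: total growth inhibition.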
Columns and labels:
Test in all cases: NCI tumour cell line growth inhibition, 48 h
[1] = test system: CAKI-1 renal
[2] = test system: SK-MEL-2 melanoma
[3] = test system: BT-549 breast
[4] = test system: LOX IMVI melanoma
[5] = test system: MDA-MB-231 breast
[6] = test system: SK-MEL-28 melanoma
[7] = test system: OVCAR-8 ovarian
[8] = test system: DU-145 prostate
[9] = test system: M14 melanoma
[10] = test system: NCI-H522 lung

| SMILES | GI50 [1] | TGI [1] [µM] | GI50 [2] | TGI [2] [µM] | GI50 [3] | TGI [3] | GI50 [4] | TGI [4] [µM] | GI50 [5] [µM] | TGI [5] [µM] | GI50 [6] | TGI [6] [µM] | GI50 [7] [µM] | TGI [7] [µM] | GI50 [8] | TGI [8] [µM] | GI50 [9] [µM] | TGI [9] [µM] | GI50 [10] [µM] | TGI [10] [µM] |
| --- | --- | --- | --- | --- | --- | --- | --- | --- | --- | --- | --- | --- | --- | --- | --- | --- | --- | --- | --- | --- |
| CCN(Cc1ccc(F)c(F)c1)c1ccc(CO)c(Cl)c1 | 3.92 µM | 27.5 | 4.08 µM | 19.5 | 11300 nM | 25 µM | 11.8 µM | 25.7 | 12.8 | 26.6 | 12.4 µM | 25.1 | 11.9 | 27.9 | 14.8 µM | 38.2 | 14 | 30.2 | 13.2 | 30.2 |
| CC(C)NC[C@@H](C(=O)N1CCN(c2ncnc3c2[C@H](C)C[C@H]3O)CC1)c1ccc(Cl)cc1 | > 10 µM and 36.1 µM | > 100 | > 10 µM and 33 µM | > 80.2 | 752 nM and 1590 nM | > 10 µM and 56.2 µM | > 10 µM and 66 µM | > 100 | > 69 | > 100 | > 10 µM and 36.6 µM | > 100 | > 100 | > 100 | > 10 µM and 40.3 µM | > 100 | > 61.5 | > 100 | > 100 | > 100 |
| Nc1c(C(=O)Nc2cccc([N+](=O)[O-])c2)sc2nc3c(cc12)C(O)CCC3 (stereo not given) | > 100 µM | > 100 | 5.4 µM | > 92.2 | 7760 nM | 57.3 µM | 7.61 µM | > 100 | 21.3 | > 100 | 16.9 µM | > 100 | 10.8 | > 100 | 20.5 µM | > 100 | 3.39 | > 100 | 6.11 | > 100 |
| O=C(c1ccc(F)cc1)c1cccc(C(=O)c2ccc(F)cc2)n1 |  | > 100 |  | 42.9 |  | 18.5 µM |  | > 100 |  | > 100 |  | > 100 |  | > 100 |  | > 100 |  | > 100 |  | 71.5 |
| CC(C)(C)C[C@H]1NC(C(=O)NCC[C@H](O)CO)[C@H](c2cccc(Cl)c2)[C@@]12C(=O)Nc1cc(Cl)c(F)cc12 (stereo not given in full) | 3.84 µM | 18.1 | 14.4 µM | 28.6 | 16300 nM | 34.2 µM | 3.12 µM | 19.1 | 14.9 | 32.4 | 15.9 µM | 30.5 | 18.6 | 39.1 | 16.1 µM | 30.6 | 16.6 | 33.7 | 14.3 | 30 |
| N#Cc1cnc2cc(OC[C@H](O)CO)c(NC(=O)CC3CSSC3)cc2c1Nc1ccc(OCc2cccc(F)c2)c(Cl)c1 | 10.1 µM | 27.6 | 0.638 µM | 1.4 | 133 nM | 0.43 µM | 2.26 µM | 3.41 | 0.288 | 1.03 | 0.126 µM | 0.319 | 1.02 | 2.28 | 0.637 µM | 1.36 | 0.139 | 0.447 | 0.729 | 1.59 |
| O=C(CC(=O)CC(O)(C(F)(F)F)C(F)(F)F)CC(O)(C(F)(F)F)C(F)(F)F |  | > 10 |  | > 10 |  | > 10 µM |  | > 10 |  | > 10 |  | > 10 |  | > 10 |  | > 10 |  | > 10 |  | > 10 |
| COC(=O)[C@H](Cc1cn(C)cn1)NC(=O)[C@H](Cc1c[nH]c2ccccc12)NC(=O)Nc1cc(C(F)(F)F)cc(C(F)(F)F)c1 | > 10 µM | > 10 | > 10 µM | > 10 | > 10000 nM | > 10 µM | > 10 µM | > 10 | > 10 | > 10 | > 10 µM | > 10 | > 10 | > 10 | > 10 µM | > 10 | > 10 | > 10 | > 10 | > 10 |
| Cc1c(C(=O)/C=C/c2csc3ccccc23)[n+](=O)c2ccccc2n1[O-] | 1.42 µM | 3.7 | 2.06 µM | 4.23 | 1610 nM | 3.88 µM | 1.23 µM | 2.47 | 1.94 | 4.81 | 2.07 µM | 4.81 | 2.37 | 6.31 | 1.46 µM | 2.78 | 1.57 | 3.21 | 1.78 | 3.88 |

From PubChem BioAssay (NCI)
